The test system of assay [1] is ipsilateral (ischemic) hemisphere of a brain. Kind of assay: In vivo screening of phage-displayed CX7C peptide library, frequency of selected clones. The conditions noted are these: 30 phage clones randomly selected in second and third rounds, rat with occluded MCA.
Assay [2] relates to ischemic stroke tissue. Kind of assay: In vivo targeting of fluorescein-labeled peptide, fluorescence microscopy of frozen sections with TTC and TUNEL staining. Set-up: species or system rat. The conditions noted are these: for targeting to the contralateral tissue / targeting to the ipsilateral tissue: fluorescein peptide into left ventricle 24 hours after ischemic injury.
Assay [3] concerns β-tubulin-positive neuron cell and GFAP-positive astrocyte in the ischemic brain tissue. As to the kind of experiment: Immunofluorescence staining for the type of cells bound to the peptide (anti-tubulin, anti-GFAP). Type of assay: in vivo, rat. The conditions noted are these: 24 hours after ischemic injury.
Assay [4] deals with ischemic stroke tissue. As to the kind of experiment: Autoradiogram of absorption of 131I-labeled peptide in ischemic stroke tissue. Format: in vivo, rat.
[5] abbreviates: tail vein 24 hours after ischemic injury, 1-hour circulation.

Where no end group is shown, it is not given here.

Consider CLEVSRKNC (Stroke-targeting peptide 1), for which, in assay [1], the “Frequency (%)” value is “(30%)” and the “Frequency (clones with the sequence / clones sequenced)” value was 9/30. Besides, the “targeting to the ischemic hemisphere” value in the assay with ischemic stroke tissue [2] (2-hour circulation (data not noted)) is recorded as “targeted to the ischemic hemisphere”. In addition, in the assay on ischemic stroke tissue [2] (15-minute circulation), the “targeting to control group organs (spleen, liver, lung)” value is “little”; the “targeting to the contralateral tissue” value is “not targeted to the contralateral tissue”; the “targeting to the ipsilateral tissue” value is “targeted to the ipsilateral tissue”. In the assay with ischemic stroke tissue [2] (15-minute circulation, TTC staining), the “region of the stroke tissue where targeting was observed” value was “observed in a penumbra”. The “binding to TUNEL-stained apoptotic cells in the penumbra” value in the assay on ischemic stroke tissue [2] (TUNEL staining of frozen sections) was “most of the apoptotic cells stained with TUNEL, except for some of them, were bound”. In assay [3], the “co-localisation with GFAP-positive astrocyte in the ischemic brain tissue” value is recorded as “did not correspond”; the “co-localisation with β-tubulin-positive neuron cell in the ischemic brain tissue” value is “corresponded to the position of β-tubulin-positive neuron cell”; the “targeting in a neuron cell and an astrocyte in the contralateral brain tissue” value is recorded as “not observed”.

CTKRNAPDC (Stroke-targeting peptide 4): in assay [1], the “Frequency (%)” value is “(10%)” and the “Frequency (clones with the sequence / clones sequenced)” value is 3/30.

On to “CNSREVLKC [CNSREVLKC peptide, reference compound]”, for which, in the assay with ischemic stroke tissue [2] (15-minute circulation), the “targeting to the contralateral tissue” value is “not observed” and the “targeting to the ipsilateral tissue” value is reported as “not observed”.

On to “^131I-CLEVSRKNC peptide: CLEVSRKNC peptide (SEQ ID NO: 1) labeled with radioisotope 131I (cysteine pairing not given here; also: 131I radiolabel)”, for which the “absorption in a general brain of a control group rat” value in the assay with ischemic stroke tissue [4] (1-hour circulation) is on record as “insufficient”. For the same substance, in the assay on ischemic stroke tissue [4] (4 coronal sections, third day vs first and seventh day, P<0.01), the “absorption rate by optically stimulated luminescence” value is “very high absorption rate on the third day”. The “time course of absorption in ischemic tissue after ischemic injury” value in the assay on ischemic stroke tissue [4] (first, third and seventh day after ischemic injury) is recorded as “reached a peak on the third day”. Further, in the assay on ischemic stroke tissue [4] (setting [5]), the “absorption in the contralateral region” value is listed as “insufficient” and the “absorption in the ipsilateral hemisphere” value is reported as “observed in the ipsilateral hemisphere”.

For CRSAVAKNC (Stroke-targeting peptide 3), in assay [1], the “Frequency (%)” value is reported as “(17%)” and the “Frequency (clones with the sequence / clones sequenced)” value is reported as 5/30.

Turning to CKRGGATAC (Stroke-targeting peptide 2), in assay [1], the “Frequency (%)” value is “(23%)” and the “Frequency (clones with the sequence / clones sequenced)” value is 7/30.

These data come from US8748398B2, “Stroke-targeting peptide and use thereof” (Kyungpook National University Industry-Academic Cooperation …, priority 2008, dated 2014).
